Data published in patent US11981640B1, “4,5-bis(4-chlorophenyl)-1-hexyl-2-(3-hydroxy-4-methoxyphenyl)-1H-imidazole as an antimicrobial compound” (KING FAISAL UNIVERSITY, priority 2023, dated 2024).

Experiments:
Assay type in all cases: cell-based
Details in all cases: after 10, 20, 40 and 60 minutes at all dilutions 1:100, 1:200, 1:400, 1:800
[1] = tested on: Escherichia coli; assay: Antimicrobial testing by agar dilution, Escherichia coli
Experimental: (§1) The antimicrobial properties of the 4,5-bis(4-chlorophenyl)-1-hexyl-2-(3-hydroxy-4-methoxyphenyl)-1H-imidazole (5) were studied by the method of agar dilution. Test solutions of each compound were prepared in concentration of 1% using dimethylformamide as a solvent then they are diluted in physiological solution to obtain the final experimental dilutions 1:100, 1:200, 1:400, 1:800. The effect of these substances were compared with furacillin in a controllable study. The testing microbes used were gram positive bacteria Staphylococcus aureus, gram negative bacteria Escherichia coli, Pseudomonas aeruginosa and Candida albicans fungi were taken. The experiments used for this survey were meat-pentonlu agar (EPA) for cultivation of bacteria and Saburo environment for fungi. Each experiment used 1 ml of test solution on each plate 500 min. Add 2 drops of emulsified with microbes feel. All experimental samples were taken from the agar after 10, 20, 40, 60 minutes in the environment on the basis of Patrk planted. Bacteria were cultivated at a temperature of 37° C. for 1 day and the mushroom was kept in a thermostat for 2 hours at a temperature of 28° C. in the. Then results were checked.

[2] = tested on: Pseudomonas aeruginosa; assay: Antimicrobial testing by agar dilution, Pseudomonas aeruginosa
Experimental: as §1

[3] = tested on: Candida albicans; assay: Antimicrobial testing by agar dilution, Candida albicans
Experimental: as §1

[4] = tested on: Staphylococcus aureus; assay: Antimicrobial testing by agar dilution, Staphylococcus aureus
Experimental: as §1

CCCCCCn1c(-c2ccc(OC)c(O)c2)nc(-c2ccc(Cl)cc2)c1-c1ccc(Cl)cc1 [4,5-bis(4-chlorophenyl)-1-hexyl-2-(3-hydroxy-4-methoxyphenyl)-1H-imidazole]
highest inhibition activity: inhibition activity, Escherichia coli [1] | inhibition activity, Pseudomonas aeruginosa [2] | inhibition activity, Candida albicans [3] | inhibition activity, Staphylococcus aureus [4]
